These results are taken from US10239825B2, “Ketamine derivatives” (Auckland Uniservices Limited, priority 2013, dated 2019).

Broadly, the melting point is the temperature, or range, at which the solid turns liquid.

Data set [1] has as its system adult female Sprague-Dawley rats. Briefly: rat infusion study: pedal withdrawal reflex PWR = 1 (analgesic effect). In kind it is in vivo. The settings on record: for minimal effective dose: Rattus norvegicus, iv, total drug administered to achieve PWR = 1, i.v. infusion; for PWR = 1 Dose, head-to-head ratio to ketamine / PWR = 1 Time, head-to-head ratio to ketamine: ratio compound/ketamine; for PWR = 1 Time: time from onset of i.v. infusion to PWR = 1. As to the method: (§1) All animal experiments were conducted at the Ruakura Research Centre, Hamilton, New Zealand, using experimental protocols reviewed and approved by the Ruakura Animal Ethics Committee (ethics ref 12604).
(§2) Following acquisition of baseline physiologic parameters (heart rate, respiratory rate, PWR, and righting reflex (RR)) adult female Sprague-Dawley rats of approximately 350-450 g were put under non-traumatic restraint and the marginal vein of the tail was cannulated. Ketamine or a compound of the invention at 10 mg/ml was administered via a minibore extension tube adequately secured to the tail. Infusions were commenced at a rate (weight-adjusted) to deliver 20 mg/kg/min initially (until the pedal withdrawal reflex score PWR=1), then were reduced to a rate of 6.7 mg/kg/min. Infusion rate was then titrated in an up-and-down fashion to maintain dorsal recumbency and a PWR=1 to 10 minutes before cessation. Three rats were used in each study, with each group of rats also acting as their own ketamine control. The order of study drug administration was determined by prior odds/evens randomisation with a recovery interval of at least one hour afforded between experiments. PWR and RR were recorded at 1 minute intervals throughout. The times from cessation of infusion to return of righting reflex (RRR), and from cessation of infusion to the animals displaying independent locomotion (walk) were recorded.
Pedal Withdrawal Reflex (PWR) Scoring:
Nociceptive testing in animals was conducted via 1 second application of constant pressure (firm digital pressure) over the forepaw of the animal. Pedal withdrawal reflex testing is primarily used to assess analgesic effect, and responses are graded accordingly: 0, absent; 1, flicker; 2, moderate withdrawal; 3, fast withdrawal; 4, Fast withdrawal with cry/preceding apnoea (modified from Buitrago, S. et al. J. Amer. Assoc. Lab. Animal. Sci. 2008, 47, 11-17).

Data set [2] shares this test system. The data set is described as follows: rat infusion study: loss/recovery of righting reflex and walk (anaesthetic effect). The data set is classed as in vivo. The conditions noted are these: exploratory, mostly single-animal evaluations.
Data set [3] shares this test system. Described as above. The data set is classed as in vivo. The settings on record: for minimal effective dose: Rattus norvegicus, iv, total drug administered to achieve loss of righting reflex, i.v. infusion, read-out: LRR Dose; for LRR Dose, head-to-head ratio to ketamine / LRR Time, head-to-head ratio to ketamine / RRR Time, head-to-head ratio to ketamine / Walk Time, head-to-head ratio to ketamine: ratio compound/ketamine; for Walk Time: time from end of infusion to independent locomotion; for RRR Time: time from end of infusion to recovery of righting reflex; for LRR Time: time from onset of i.v. infusion to loss of righting reflex, 20 mg/kg/min initially. As for the experimental part:
as §1, §2
Loss of Righting Reflex (LRR):
This is primarily used to assess anaesthetic hypnotic effect. Righting reflex is judged absent when the rat fails to right from a position of dorsal recumbency to a position of sternal recumbency on three attempts performed in rapid succession. Dose to LRR is termed effective potency.

Take `CCOC(=O)CCN(C)C1(c2ccccc2Cl)CCCCC1=O` (stereo not shown) [compound 19, Ethyl 3-((1-(2-chlorophenyl)-2-oxocyclohexyl)(methyl)amino)propanoate]: in data set [1], the minimal effective dose was determined as 99 mg/kg; the “PWR = 1 Dose, head-to-head ratio to ketamine” value was 3.96; the “PWR = 1 Time, head-to-head ratio to ketamine” value turned out to be 4.20; the “PWR = 1 Time” value amounted to 290 s. In addition, the “sedative effect (in words)” value in data set [2] was “very weak sedative effect”. In addition, in data set [3], the minimal effective dose was 95 mg/kg; the “LRR Dose, head-to-head ratio to ketamine” value is recorded as 4.50; the “LRR Time, head-to-head ratio to ketamine” value was 4.67; the “Walk Time” value was determined as 0 s. In data set [3], the “RRR Time” value is 0 s and the “LRR Time” value was determined as 280 s. In data set [3] (rat infusion study, discussion), the “potency (in words)” value was “about as potent as the n-Pr norketamine esters” and the “recovery (in words)” value is “very rapid recovery”.
For the compound `CC(C)OC(=O)CCNC1(c2ccccc2Cl)CCCCC1=O.Cl` (racemic) [rac-C2iPr, Iso-Propyl 3-((1-(2-chlorophenyl)-2-oxocyclohexyl)amino)propanoate Hydrochloride], the melting point is 203 to 205 °C. In data set [1], the minimal effective dose turned out to be 37 ± 6 mg/kg; the “PWR = 1 Dose, head-to-head ratio to ketamine” value is 1.54; the “PWR = 1 Time, head-to-head ratio to ketamine” value worked out at 1.79; the “PWR = 1 Time” value stood at 127 ± 13 s. In addition, in data set [3], the minimal effective dose was 33 ± 6 mg/kg; the “LRR Dose, head-to-head ratio to ketamine” value came out at 1.50; the “LRR Time, head-to-head ratio to ketamine” value is reported as 1.66; the “RRR Time, head-to-head ratio to ketamine” value is recorded as 0.11. For the same compound, in data set [3], the “Walk Time, head-to-head ratio to ketamine” value was 0.14; the “Walk Time” value stood at 153 ± 33 s; the “RRR Time” value stood at 83 ± 19 s; the “LRR Time” value was 103 ± 17 s.
The compound `CC(C)OC(=O)CCN[C@@]1(c2ccccc2Cl)CCCCC1=O.Cl` [(R)-C2iPr, (R)-Isopropyl 3-((1-(2-chlorophenyl)-2-oxocyclohexyl)amino)propanoate Hydrochloride] registered a melting point of 216 to 219 °C. For the same compound, in data set [1], the minimal effective dose is 82 mg/kg; the “PWR = 1 Dose, head-to-head ratio to ketamine” value is reported as 3.15; the “PWR = 1 Time, head-to-head ratio to ketamine” value amounted to 2.75; the “PWR = 1 Time” value was found to be 190 s. In addition, in data set [3], the minimal effective dose worked out at 71 mg/kg; the “LRR Dose, head-to-head ratio to ketamine” value turned out to be 2.96; the “LRR Time, head-to-head ratio to ketamine” value is recorded as 3.20; the “Walk Time, head-to-head ratio to ketamine” value was determined as 0.06. Further, in data set [3], the “Walk Time” value was found to be 900 s, the “RRR Time” value turned out to be 0 s and the “LRR Time” value is 170 s.
In the case of `CCOC(=O)CCCCNC1(c2ccccc2Cl)CCCCC1=O.Cl` (racemic) [rac-C4Et, Rac-Ethyl 5-((1-(2-chlorophenyl)-2-oxocyclohexyl)amino)pentanoate hydrochloride], the melting point lay in the range of 169 to 172 °C. In data set [1], the minimal effective dose was determined as 57 ± 12 mg/kg; the “PWR = 1 Dose, head-to-head ratio to ketamine” value amounted to 2.48; the “PWR = 1 Time, head-to-head ratio to ketamine” value is on record as 2.26; the “PWR = 1 Time” value came to 172 ± 36 s. Further, in data set [3], the minimal effective dose came to 34 ± 4 mg/kg; the “LRR Dose, head-to-head ratio to ketamine” value is on record as 2.00; the “LRR Time, head-to-head ratio to ketamine” value came to 1.73; the “RRR Time, head-to-head ratio to ketamine” value came to 0.09. Further, in data set [3], the “Walk Time, head-to-head ratio to ketamine” value worked out at 0.05; the “Walk Time” value came to 158 ± 22 s; the “RRR Time” value was determined as 134 ± 22 s; the “LRR Time” value was found to be 97 ± 8 s.
With `CCOC(=O)CCCN(C)C1(c2ccccc2Cl)CCCCC1=O.Cl` (stereo not shown) [compound 20, Ethyl 4-((1-(2-chlorophenyl)-2-oxocyclohexyl)(methyl)amino)butanoate Hydrochloride], in data set [1], the minimal effective dose was 196 mg/kg; the “PWR = 1 Dose, head-to-head ratio to ketamine” value worked out at 6.76; the “PWR = 1 Time, head-to-head ratio to ketamine” value is reported as 6.98; the “PWR = 1 Time” value turned out to be 600 s. Also, the “sedative effect (in words)” value in data set [2] is reported as “weak sedative activity”. For the same compound, in data set [3], the minimal effective dose was found to be 196 mg/kg; the “LRR Dose, head-to-head ratio to ketamine” value is reported as 7.84; the “LRR Time, head-to-head ratio to ketamine” value is recorded as 8.00; the “Walk Time” value is 0 s. Further, in data set [3], the “RRR Time” value stood at 0 s and the “LRR Time” value turned out to be 600 s. The “potency (in words)” value in data set [3] (rat infusion study, discussion) is on record as “less potent”.
Consider `CCOC(=O)CCCNC1(c2ccccc2Cl)CCCCC1=O.Cl` (racemic) [rac-C3Et, Ethyl 4-((1-(2-chlorophenyl)-2-oxocyclohexyl)amino)butanoate Hydrochloride], for which the melting point lay in the range of 186 to 189 °C. In addition, in data set [1], the minimal effective dose is 44 ± 5 mg/kg; the “PWR = 1 Dose, head-to-head ratio to ketamine” value worked out at 1.83; the “PWR = 1 Time, head-to-head ratio to ketamine” value was found to be 1.80; the “PWR = 1 Time” value stood at 137 ± 14 s. In addition, in data set [3], the minimal effective dose is 24 ± 2 mg/kg; the “LRR Dose, head-to-head ratio to ketamine” value is given as 1.41; the “LRR Time, head-to-head ratio to ketamine” value is on record as 1.19; the “RRR Time, head-to-head ratio to ketamine” value is given as 0.062. Also, in data set [3], the “Walk Time, head-to-head ratio to ketamine” value turned out to be 0.08; the “Walk Time” value was determined as 170 ± 17 s; the “RRR Time” value worked out at 95 ± 12 s; the “LRR Time” value was determined as 70 ± 6 s.
`CC(C)OC(=O)CCCCNC1(c2ccccc2Cl)CCCCC1=O.Cl` (racemic) [rac-C4iPr, Isopropyl 5-((1-(2-chlorophenyl)-2-oxocyclohexyl)amino)pentanoate Hydrochloride] returned a melting point of 161 to 163 °C. Further, in data set [1], the minimal effective dose was 38 mg/kg; the “PWR = 1 Dose, head-to-head ratio to ketamine” value stood at 1.73; the “PWR = 1 Time, head-to-head ratio to ketamine” value stood at 1.85; the “PWR = 1 Time” value stood at 122 s. In addition, in data set [3], the minimal effective dose was 38 mg/kg; the “LRR Dose, head-to-head ratio to ketamine” value is listed as 2.00; the “LRR Time, head-to-head ratio to ketamine” value stood at 2.26; the “RRR Time, head-to-head ratio to ketamine” value came to 1.78. In data set [3], the “Walk Time, head-to-head ratio to ketamine” value amounted to 1.17; the “Walk Time” value amounted to 320 s; the “RRR Time” value is 180 s; the “LRR Time” value was found to be 122 s.
As to `CC(C)OC(=O)CCCNC1(c2ccccc2Cl)CCCCC1=O.Cl` (racemic) [rac-C3iPr, Isopropyl 4-((1-(2-chlorophenyl)-2-oxocyclohexyl)amino)butanoate hydrochloride], the melting point lay in the range of 167 to 169 °C. In data set [1], the minimal effective dose worked out at 66 ± 17 mg/kg; the “PWR = 1 Dose, head-to-head ratio to ketamine” value stood at 2.36; the “PWR = 1 Time, head-to-head ratio to ketamine” value was 2.29; the “PWR = 1 Time” value was found to be 192 ± 47 s. In data set [3], the minimal effective dose turned out to be 42 ± 9 mg/kg; the “LRR Dose, head-to-head ratio to ketamine” value is given as 1.83; the “LRR Time, head-to-head ratio to ketamine” value was 1.81; the “RRR Time, head-to-head ratio to ketamine” value is reported as 0.042. In data set [3], the “Walk Time, head-to-head ratio to ketamine” value came out at 0.08; the “Walk Time” value came to 110 ± 45 s; the “RRR Time” value is 37 ± 22 s; the “LRR Time” value worked out at 125 ± 21 s.
Turning to `CCOC(=O)CCNC1(c2ccccc2Cl)CCCCC1=O.Cl` (racemic) [rac-C2Et, Ethyl 3-((1-(2-chlorophenyl)-2-oxocyclohexyl)amino)propanoate Hydrochloride], the melting point was in the range of 199 to 202 °C. In addition, in data set [1], the minimal effective dose stood at 55 ± 25 mg/kg; the “PWR = 1 Dose, head-to-head ratio to ketamine” value stood at 1.45; the “PWR = 1 Time, head-to-head ratio to ketamine” value is 1.62; the “PWR = 1 Time” value turned out to be 154 ± 68 s. Also, in data set [3], the minimal effective dose was 48 ± 23 mg/kg; the “LRR Dose, head-to-head ratio to ketamine” value is listed as 1.78; the “LRR Time, head-to-head ratio to ketamine” value worked out at 1.75; the “RRR Time, head-to-head ratio to ketamine” value turned out to be 0.11. Moreover, in data set [3], the “Walk Time, head-to-head ratio to ketamine” value worked out at 0.10; the “Walk Time” value came to 253 ± 68 s; the “RRR Time” value came out at 177 ± 51 s; the “LRR Time” value was 135 ± 61 s.
